Experimental findings from patent US20260049088A1, “TRICYCLIC HETEROCYCLIC DERIVATIVES, COMPOSITIONS AND USES THEREOF” (Danatlas Pharmaceuticals Co., Ltd., priority 2023, published 2026) are described below.

T1 sequence (Q86W56 whole entry): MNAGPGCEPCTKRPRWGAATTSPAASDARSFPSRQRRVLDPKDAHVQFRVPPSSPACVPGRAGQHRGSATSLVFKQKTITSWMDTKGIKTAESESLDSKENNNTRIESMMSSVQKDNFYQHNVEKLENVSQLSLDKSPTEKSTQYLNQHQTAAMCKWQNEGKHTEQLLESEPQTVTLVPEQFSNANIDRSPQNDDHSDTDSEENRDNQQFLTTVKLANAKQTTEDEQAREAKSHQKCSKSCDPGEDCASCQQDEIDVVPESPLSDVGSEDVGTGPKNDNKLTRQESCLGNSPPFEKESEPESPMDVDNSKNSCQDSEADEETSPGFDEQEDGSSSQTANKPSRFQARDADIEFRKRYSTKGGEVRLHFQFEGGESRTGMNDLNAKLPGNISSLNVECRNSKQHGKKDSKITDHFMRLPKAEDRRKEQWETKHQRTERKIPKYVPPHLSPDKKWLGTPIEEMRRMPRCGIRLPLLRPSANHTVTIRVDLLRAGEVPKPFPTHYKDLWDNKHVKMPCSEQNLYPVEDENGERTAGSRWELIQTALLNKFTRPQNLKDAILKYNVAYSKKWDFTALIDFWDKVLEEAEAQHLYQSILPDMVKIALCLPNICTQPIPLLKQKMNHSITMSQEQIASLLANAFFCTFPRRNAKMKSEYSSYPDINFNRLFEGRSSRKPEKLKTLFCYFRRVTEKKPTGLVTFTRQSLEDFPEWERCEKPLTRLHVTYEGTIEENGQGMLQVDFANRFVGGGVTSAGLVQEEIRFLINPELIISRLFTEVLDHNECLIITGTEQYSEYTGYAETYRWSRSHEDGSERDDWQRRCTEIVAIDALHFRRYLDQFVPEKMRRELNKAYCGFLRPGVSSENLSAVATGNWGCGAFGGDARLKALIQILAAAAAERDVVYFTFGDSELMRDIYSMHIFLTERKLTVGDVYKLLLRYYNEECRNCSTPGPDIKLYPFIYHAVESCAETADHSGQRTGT

The assay addresses T1, hPARG (Homo sapiens, UniProt Q86W56).
T1 construct: made in house; host or cells: E. coli
As to the kind of experiment: PARG enzymatic activity assay (HTRF). The class given is biochemical. Particulars: C-terminal His6-tag hPARG 65 pM, biotinylated-NAD ribosylated PARP1 substrate 8 nM. The procedure: HTRF assay was used to measure the ability of compounds to inhibit the activity of […] in vitro. C-terminal His6—tag PARG expressed in E. coli was purified and stored at −80° C. in aliquots. Assay measurements were performed with 1×buffer comprising 50 mM Tris pH 7.4, 0.1 mg/mL BSA, 3 mM EDTA, 0.4 mM EGTA, 1 mM DTT, 50 mM KCl and 0.01% Tween 20. Compounds dissolved in DMSO were plated into a 384-well assay plate (PerkinElmer, Catalog #: 6008280) in duplicate using a dispenser (Labcyte, Echo 665), and tested on a 10-point 4-fold serial dilution. Add 5 μL Enzyme mix [hPARG (C-terminal His6—tag, 4.2 μM), 65 pM final] to the test wells. The plates were covered and left to incubate for 60 minutes at RT before the addition of 5 μL substrate mix [biotinylated-NAD ribosylated PARP1 (6.1 μM), 8 nM final] to initiate reaction. After incubating 10 minutes at RT, add 2.5 μL Streptavidin-Eu cryptate (Cisbio, Catalog #: 610SAKLA) and 2.5 μL Mab anti 6HIS-XL665 (Cisbio, Catalog #: 61HISXLA) to the plate, and incubate for 60 minutes at RT. Read on a multimode plate reader (PerkinElmer, Envision 2015) in time-resolved fluorescence (TRF) mode, with excitation at 337 nm and emission at both 620 nm and 665 nm. Average HTRF signal of high control (Wells with 1% DMSO) was calculated and as Vehicle Control (VC). Average HTRF signal of low control (no Enzyme) was calculated and as Positive control (PC).
IC50 values were determined by fitting the data to the standard 4 parameters with Hill Slope using GraphPad Prism software.
`N#CC1(NS(=O)(=O)c2ccc3c4c(OCC5CCOC5)ncnc4n(-c4nnc(C(F)F)s4)c3c2)CC1` (centres unmarked) [Example 9, N-(1-Cyanocyclopropyl)-9-(5-(difluoromethyl)-1,3,4-thiadiazol-2-yl)-4-((tetrahydrofuran-3-yl)methoxy)-9H-pyrimido[4,5-b]indole-7-sulfonamide] showed a 50% inhibitory concentration (IC50) not above 100 nM.

On to `C[C@@H]1CCCN(c2ncnc3c2c2ccc(S(=O)(=O)NC4(C#N)CC4)cc2n3-c2nnc(C(F)F)s2)C1` [Example 81, (R)-N-(1-Cyanocyclopropyl)-9-(5-(difluoromethyl)-1,3,4-thiadiazol-2-yl)-4-(3-methylpiperidin-1-yl)-9H-pyrimido[4,5-b]indole-7-sulfonamide], for which the 50% inhibitory concentration (IC50) was not above 100 nM.

In turn, `CN(C[C@H]1CC[C@@H](O)CC1)c1ncnc2c1c1ccc(S(=O)(=O)NC3(C#N)CC3)cc1n2-c1nnc(C(F)F)s1` [Example 73, N-(1-Cyanocyclopropyl)-9-(5-(difluoromethyl)-1,3,4-thiadiazol-2-yl)-4-((((1s,4s)-4-hydroxycyclohexyl)methyl)(methyl)amino)-9H-pyrimido[4,5-b]indole-7-sulfonamide] gave an IC50 not above 100 nM.

Take `CN(C[C@@H]1CCOC1)c1ncnc2c1c1ccc(S(=O)(=O)NC3(C#N)CC3)cc1n2-c1nnc(C(F)F)s1` [Example 56, (S)-N-(1-Cyanocyclopropyl)-9-(5-(difluoromethyl)-1,3,4-thiadiazol-2-yl)-4-(methyl((tetrahydrofuran-3-yl)methyl)amino)-9H-pyrimido[4,5-b]indole-7-sulfonamide]: the IC50 is not above 100 nM.

For the molecule `CN(CC1CCCN1C)c1ncnc2c1c1ccc(S(=O)(=O)NC3(C#N)CC3)cc1n2-c1nnc(C(F)F)s1` (centres unmarked) [Example 80, N-(1-Cyanocyclopropyl)-9-(5-(difluoromethyl)-1,3,4-thiadiazol-2-yl)-4-(methyl((1-methylpyrrolidin-2-yl)methyl)amino)-9H-pyrimido[4,5-b]indole-7-sulfonamide], the IC50 was not above 100 nM.

Molecule `N#CC1(NS(=O)(=O)c2ccc3c4c(SCCN5CCOCC5)ncnc4n(-c4nnc(C(F)F)s4)c3c2)CC1` [Example 83, N-(1-Cyanocyclopropyl)-9-(5-(difluoromethyl)-1,3,4-thiadiazol-2-yl)-4-((2-morpholinoethyl)thio)-9H-pyrimido[4,5-b]indole-7-sulfonamide] came in with a concentration for half-maximal inhibition (IC50) of 100 to 1000 nM.

In turn, `CCN(CC)CCOc1ncnc2c1c1ccc(S(=O)(=O)NC3(C#N)CC3)cc1n2-c1nnc(C(F)F)s1` [Example 10, N-(1-Cyanocyclopropyl)-4-(2-(diethylamino)ethoxy)-9-(5-(difluoromethyl)-1,3,4-thiadiazol-2-yl)-9H-pyrimido[4,5-b]indole-7-sulfonamide] displayed an IC50 not above 100 nM.

For the molecule `CN(C)C(=O)N1CCN(CCOc2ncnc3c2c2ccc(S(=O)(=O)NC4(C#N)CC4)cc2n3-c2nnc(C(F)F)s2)CC1` [Example 5, 4-(2-((7-(N-(1-Cyanocyclopropyl)sulfamoyl)-9-(5-(difluoromethyl)-1,3,4-thiadiazol-2-yl)-9H-pyrimido[4,5-b]indol-4-yl)oxy)ethyl)-N,N-dimethylpiperazine-1-carboxamide], the IC50 was not above 100 nM.

Consider `CCc1cnc2n1CCN(c1ncnc3c1c1ccc(S(=O)(=O)NC4(C#N)CC4)cc1n3-c1nnc(C(F)F)s1)C2` [Example 54, N-(1-Cyanocyclopropyl)-9-(5-(difluoromethyl)-1,3,4-thiadiazol-2-yl)-4-(3-ethyl-5,6-dihydroimidazo[1,2-a]pyrazin-7(8H)-yl)-9H-pyrimido[4,5-b]indole-7-sulfonamide], for which the IC50 was not above 100 nM.

Molecule `CN(CCN1CCCS1(=O)=O)c1ncnc2c1c1ccc(S(=O)(=O)NC3(C#N)CC3)cc1n2-c1nnc(C(F)F)s1` [Example 72, N-(1-Cyanocyclopropyl)-9-(5-(difluoromethyl)-1,3,4-thiadiazol-2-yl)-4-((2-(1,1-dioxidoisothiazolidin-2-yl)ethyl)(methyl)amino)-9H-pyrimido [4,5-b]indole-7-sulfonamide] returned an IC50 of 100 to 1000 nM.

As to `CCN1CCCC12CCN(c1ncnc3c1c1ccc(S(=O)(=O)NC4(C#N)CC4)cc1n3-c1nnc(C(F)F)s1)CC2` [Example 52, N-(1-Cyanocyclopropyl)-9-(5-(difluoromethyl)-1,3,4-thiadiazol-2-yl)-4-(1-ethyl-1,8-diazaspiro[4.5]decan-8-yl)-9H-pyrimido[4,5-b]indole-7-sulfonamide], the IC50 is not above 100 nM.

Molecule `N#CC1(NS(=O)(=O)c2ccc3c4c(N5CCn6cnnc6C5)ncnc4n(-c4nnc(C(F)F)s4)c3c2)CC1` [Example 46, N-(1-Cyanocyclopropyl)-9-(5-(difluoromethyl)-1,3,4-thiadiazol-2-yl)-4-(5,6-dihydro-[1,2,4]triazolo[4,3-a]pyrazin-7(8H)-yl)-9H-pyrimido[4,5-b]indole-7-sulfonamide] gave a half-maximal inhibitory concentration (IC50) not above 100 nM.

Molecule `CCN(CC)C1CCN(c2ncnc3c2c2ccc(S(=O)(=O)NC4(C#N)CC4)cc2n3-c2nnc(C(F)F)s2)CC1` [Example 28, N-(1-Cyanocyclopropyl)-4-(4-(diethylamino)piperidin-1-yl)-9-(5-(difluoromethyl)-1,3,4-thiadiazol-2-yl)-9H-pyrimido[4,5-b]indole-7-sulfonamide] displayed a half-inhibitory concentration (IC50) not above 100 nM.

Molecule `N#CC1(NS(=O)(=O)c2ccc3c4c(NC(=O)CN5CCOCC5)ncnc4n(-c4nnc(C(F)F)s4)c3c2)CC1` [Example 82, N-(7-(N-(1-Cyanocyclopropyl)sulfamoyl)-9-(5-(difluoromethyl)-1,3,4-thiadiazol-2-yl)-9H-pyrimido[4,5-b]indol-4-yl)-2-morpholinoacetamide] registered an IC50 not above 100 nM.

`CN(Cc1ccncc1)c1ncnc2c1c1ccc(S(=O)(=O)NC3(C#N)CC3)cc1n2-c1nnc(C(F)F)s1` [Example 21, N-(1-Cyanocyclopropyl)-9-(5-(difluoromethyl)-1,3,4-thiadiazol-2-yl)-4-(methyl(pyridin-4-ylmethyl)amino)-9H-pyrimido[4,5-b]indole-7-sulfonamide]: the half-inhibitory concentration (IC50) was not above 100 nM.

In turn, `N#CC1(NS(=O)(=O)c2ccc3c4c(/C=C/CN5CCOCC5)ncnc4n(-c4nnc(C(F)F)s4)c3c2)CC1` [Example 85, (E)-N-(1-Cyanocyclopropyl)-9-(5-(difluoromethyl)-1,3,4-thiadiazol-2-yl)-4-(3-morpholinoprop-1-en-1-yl)-9H-pyrimido[4,5-b]indole-7-sulfonamide] had an IC50 not above 100 nM.

`CN1CCOCC1COc1ncnc2c1c1ccc(S(=O)(=O)NC3(C#N)CC3)cc1n2-c1nnc(C(F)F)s1` (centres unmarked) [Example 90, N-(1-Cyanocyclopropyl)-9-(5-(difluoromethyl)-1,3,4-thiadiazol-2-yl)-4-((4-methylmorpholin-3-yl)methoxy)-9H-pyrimido[4,5-b]indole-7-sulfonamide] gave a half-inhibitory concentration (IC50) of 100 to 1000 nM.

For the molecule `CN(CCn1cccn1)c1ncnc2c1c1ccc(S(=O)(=O)NC3(C#N)CC3)cc1n2-c1nnc(C(F)F)s1` [Example 24, 4-((2-(1H-Pyrazol-1-yl)ethyl)(methyl)amino)-N-(1-cyanocyclopropyl)-9-(5-(difluoromethyl)-1,3,4-thiadiazol-2-yl)-9H-pyrimido[4,5-b]indole-7-sulfonamide], the half-inhibitory concentration (IC50) lay within 100 to 1000 nM.

Consider `N#CC1(NS(=O)(=O)c2ccc3c4c(CCCN5CCOCC5)ncnc4n(-c4nnc(C(F)F)s4)c3c2)CC1` [Example 87, N-(1-Cyanocyclopropyl)-9-(5-(difluoromethyl)-1,3,4-thiadiazol-2-yl)-4-(3-morpholinopropyl)-9H-pyrimido[4,5-b]indole-7-sulfonamide], for which the IC50 is not above 100 nM.

`CN1CCN(CCN(C)c2ncnc3c2c2ccc(S(=O)(=O)NC4(C#N)CC4)cc2n3-c2nnc(C(F)F)s2)C1=O` [Example 60, N-(1-Cyanocyclopropyl)-9-(5-(difluoromethyl)-1,3,4-thiadiazol-2-yl)-4-(methyl(2-(3-methyl-2-oxoimidazolidin-1-yl)ethyl)amino)-9H-pyrimido[4,5-b]indole-7-sulfonamide] yielded an IC50 not above 100 nM.

For the molecule `CN(CC1COCCO1)c1ncnc2c1c1ccc(S(=O)(=O)NC3(C#N)CC3)cc1n2-c1nnc(C(F)F)s1` (centres unmarked) [Example 69, 4-(((1,4-Dioxan-2-yl)methyl)(methyl)amino)-N-(1-cyanocyclopropyl)-9-(5-(difluoromethyl)-1,3,4-thiadiazol-2-yl)-9H-pyrimido[4,5-b]indole-7-sulfonamide], the IC50 was not above 100 nM.

Molecule `CN(c1ncnc2c1c1ccc(S(=O)(=O)NC3(C#N)CC3)cc1n2-c1nnc(C(F)F)s1)C1COC1` [Example 58, N-(1-Cyanocyclopropyl)-9-(5-(difluoromethyl)-1,3,4-thiadiazol-2-yl)-4-(methyl(oxetan-3-yl)amino)-9H-pyrimido[4,5-b]indole-7-sulfonamide] had an IC50 of 100 to 1000 nM.

`CN(C)c1ncnc2c1c1ccc(S(=O)(=O)NC3(C#N)CC3)cc1n2-c1nnc(C(F)F)s1` [Example 14, N-(1-Cyanocyclopropyl)-9-(5-(difluoromethyl)-1,3,4-thiadiazol-2-yl)-4-(dimethylamino)-9H-pyrimido[4,5-b]indole-7-sulfonamide] displayed a half-inhibitory concentration (IC50) not above 100 nM.

By IC50 is commonly meant the concentration that inhibits the measured activity by half.
